The results in this text go back to publication PMC12323621, “Exploring the antimicrobial activity of pantothenamides against uropathogenic Escherichia coli” (Microbiology Spectrum, 2025).

Data set [1] has as its system UPEC strain CFT073. Briefly: Antimicrobial susceptibility assay, UPEC grown in MOPS-glycerol. The following applies: UPEC CFT073 grown in MOPS-glycerol, 24 h, ± standard error; for MIC: Escherichia coli. It counts as cell-based, Escherichia coli. The text has this: Unless otherwise noted, all reagents were obtained from commercial sources. BAP, 1, and N5-Pan analogs were synthesized according to previously reported procedures ([31], [53]). Urine was self-collected from adult males and females (not menstruating) between 24 and 57 years old (recruitment was open to donors 18–65 years old), who had not used anti-infectives or cranberry products for at least 7 days prior to collection. The collection protocol was approved by the Johns Hopkins University Institutional Review Boards under IRB study NA_00085130. Informed, written consent was obtained from all participants prior to collection. Urine was collected from at least 7 participants over 14 days, stored at 4°C upon collection, and then pooled, filter-sterilized, and frozen at −20°C. Urine Batch A included five male and three female donors with an average age of 33 years (range: 24–57). Urine Batch B included four male and five female donors with an average age of 26 years (range: 24–43). Samples from two donors (donations made at least 30 days apart) were included in both Batch A and Batch B. Urine Batch C included four male and three female donors with an average age of 27 years (range: 24–36). Urine Batch D included four male and three female donors with an average age of 27 years (range: 25–35). Solid urine agar plates were prepared by supplementing cooled 1.5% (wt/vol) agar with filter-sterilized urine in a 4:1 ratio. Liquid MOPS-glycerol was prepared by adding 10 × 3-(N-morpholino)propanesulfonic acid (MOPS) Buffer (Teknova) to water to a final 1× concentration, 1.32 mM K2HPO4, and 0.4% (vol/vol) glycerol and then filter-sterilizing. Unless otherwise noted, all media were supplemented with freshly prepared 20 µM FeSO4. OD600 analyses were performed on Mettler-Toledo UV5Bio UV/Visible spectrophotometer (Columbus, Ohio, USA). For antimicrobial studies, uropathogenic E. coli strain CFT073 (ATCC: BAA-2503) was provided by Kevin Schwartz from the lab of Rodney Welch. All manipulation of UPEC was conducted in a certified biosafety level 2 (BSL-2) laboratory while using BSL-2-associated safety procedures. Antimicrobial data were collected on a Biotek Epoch 2 microplate reader or a Biotek Synergy Neo 2 microplate reader. For metabolic stability studies, losartan potassium (PHR1602), used as an internal standard, was bought from Millipore Sigma (Burlington, MA). Methanol (A456-4) and acetonitrile (A955-4) were purchased from Fisher Chemical (Pittsburgh, PA). Water (9831-03) was purchased from JT Baker (Philipsburg, NJ). Dimethyl sulfoxide (DMSO)(154938-500mL) was purchased from Sigma Aldrich (St. Louis, MO). Mouse plasma (WT) was purchased from Innovative Research (Novi, MI). Mouse liver microsomes (M1000) were purchased from XenoTech LLC (Kansas City, KS).
All antimicrobial susceptibility assays were conducted as previously described using an aseptic technique with some modification ([7]). Briefly, 3–5 isolated colonies of CFT073 on LB agar or pooled urine agar were inoculated into 3 mL of liquid MOPS-glycerol medium or pooled urine, respectively, and grown overnight with shaking at 37°C. Saturated cultures were diluted 1:50 in fresh medium and grown to an OD600 of 0.4. These exponential phase cultures were then diluted 1:1,000 into fresh medium to yield the experimental inoculum, which was mixed 1:1 with medium containing 1 or N5-Pan analog at twice the desired final concentration in 96-well plates. The final concentration of bacteria in each well was approximately 10^5 CFU/mL in a final volume of 200 µL. The concentration ranges of compounds evaluated in MOPS-glycerol were: 1 (0–312.5 μM), 2 (0–100 μM), 3 (0–500 μM), 4–5 (0–2,000 μM), 6–7 (0–100 μM), and 8–12 (0-2,000 μM). Analogs 1, 6, and 7 were evaluated over a range of 0–4,000 μM in four batches of pooled human urine. The OD600 was monitored for 24 h (MOPS-glycerol) or 16 h (pooled urine) at 37°C with periodic shaking. […]

A short description of data set [2]: Stability in mouse liver homogenate. Conditions: for remaining at 1 h, 10 µM: mouse, liver tissue homogenate (10% wt/vol), 10% wt/vol homogenate, 10 µM compound, 37°C; for stability in mouse liver homogenate: n = 3. It counts as in vitro ADME. The protocol:
Stability studies were conducted in mouse liver microsomes, mouse liver tissue homogenate, and CD1 mouse plasma as previously described with minor modifications ([54][–][56]). Briefly, for Phase I mouse liver microsome stability, reactions were carried out with 200 mM potassium phosphate buffer, pH 7.4, with or without an NADPH-regenerating system (1.3 mM NADPH, 3.3 mM glucose 6-phosphate, 3.3 mM MgCl2, 0.4 U/mL glucose-6-phosphate dehydrogenase, and 50 µM sodium citrate). Reactions, in triplicate, were initiated by the addition of liver microsomes to the incubation mixture (compound final concentration was 1 µM; 0.2 mg/mL microsomes) and incubated at 37°C for the desired incubation time. For liver stability, the tissue homogenate was prepared by washing tissues with diluted 10-fold 0.1 M potassium phosphate buffer and homogenized using a probe sonicator over ice. To evaluate the stability of the drugs over time, each of the crude homogenates was aliquoted to 1 mL and then spiked with a final assay concentration of 10 µM of each drug, followed by incubation in an orbital shaker at 37°C for 1 h (in triplicate). For plasma stability, 1 mL of plasma was spiked with 10 µM of each drug, followed by incubation in an orbital shaker at 37°C for 1 h (in triplicate). Samples from each metabolism study were quenched with 3× volume of acetonitrile containing internal standard (losartan: 0.5 µM) at the desired incubation times. […] Samples were vortex-mixed for 30 s and centrifuged at 10,000 × g for 10 min at 4°C. Compound disappearance over time was monitored using a Dionex ultra-high-performance liquid chromatography system consisting of an analytical pump and an autosampler coupled with Q Exactive Focus orbitrap mass spectrometer (Thermo Fisher Scientific Inc., Waltham MA). […] The mobile phase used was composed of 0.1% formic acid in water and 0.1% formic acid in acetonitrile with gradient elution. The total run time for each analyte was 5 min.
The mass spectrometer was operated with a HESI ion source in positive ionization mode where compounds were identified in the full scan mode (from m/z 75.00–1125.00) and controlled by the Xcalibur software 4.0.27.13 (Thermo Scientific). Data were acquired using Xcalibur software. Drugs were identified in the full-scan mode (from m/z 75.00 to 1125.00) by comparing t = 0 samples with t = 30 or 60 min samples, and structures were proposed based on the accurate mass information. The percentage of compound remaining for pantothenamides 1, 6, and 7 was determined from the analyte/internal standard (IS) area ratios obtained at t = 30 or 60 min relative to the mean ratios obtained at t = 0 min and calculated using equation 1:
% Remaining=(Peak area of Analyte/Preak area of ISat t=30 or 60 min/MeanPeak area of Analyte/Peak area of ISat t=0 min)×100

The MIC is the least concentration at which growth counts as inhibited. In general, fraction remaining refers to what is left of the initial amount, in per cent. Read a low fraction remaining as a greater loss. As to `CCCCCNC(=O)CNC(=O)[C@H](O)C(C)(C)CO` [compound 6, N5-α-pantothenamide], in data set [1], the MIC is 6.25 µM and the “MIC MOPS-glycerol” value was 6.25 ± 0.00 µM. In addition, in data set [2], the fraction remaining at 1 h, 10 µM was 96% and the “stability in mouse liver homogenate” value is “good stability”.
In the same order, the values of `CCCCCNC(=O)CCNC(=O)[C@H](O)C(C)(C)CO` [compound 1, N-pentylpantothenamide, reference compound] are 2.44 µM, 2.44 ± 0.00 µM, 17% and “unstable”.
